The source of these data is patent US11472798B2 (Mission Therapeutics Limited, priority 2014, dated 2022).

In this test the target is T1, UCHL1 (Homo sapiens, UniProt P09936).
T1 construct: made in house; host or cells: HEK293T
T1 sequence (P09936 1-223): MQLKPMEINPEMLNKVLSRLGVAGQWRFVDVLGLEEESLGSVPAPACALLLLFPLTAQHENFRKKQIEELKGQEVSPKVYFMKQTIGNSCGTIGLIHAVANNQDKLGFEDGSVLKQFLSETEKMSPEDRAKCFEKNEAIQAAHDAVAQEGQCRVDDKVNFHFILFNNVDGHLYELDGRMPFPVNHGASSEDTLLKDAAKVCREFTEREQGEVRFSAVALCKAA
The experiment in a line: UCHL1 biochemical IC50 assay (fluorescence polarisation). The following applies: 30 min enzyme/compound pre-incubation at room temp, read after 2 hr incubation, read-out: Activity range (UCHL1 biochemical IC50 assay). The essentials:
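Fluorescence polarisation (ex 540/em 590 nm) of 50 nM TAMRA-labelled ubiquitin–peptide isopeptide substrate was read at time zero and after 2 h at room temperature. Compounds (100–0.03 μM final, in duplicate) were given 30 min preincubation with N-FLAG UCHL1 from HEK293T cells in pH 7.5 Tris buffer.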
Background: In fluorescence polarisation assays a small probe gives low polarisation when free and higher when bound to something large.

Each structure is given as a SMILES string.

Turning to `N#CN1CC[C@H](C(=O)Nc2cn(C3CCN(C(=O)c4ccccc4)C3)cn2)C1` (stereo partly drawn) [Example 185, (3S)—N-(1-(1-benzoylpyrrolidin-3-yl)-1H-imidazol-4-yl)-1-cyanopyrrolidine-3-carboxamide], the IC50 was less than 1 µM.
Take `N#CN1CC[C@H](C(=O)Nc2cn3cc(-c4cnco4)ccc3n2)C1` [Example 276, (S)-1-cyano-N-(6-(oxazol-5-yl)imidazo[1 ,2-a]pyridin-2-yl)pyrrolidine-3-carboxamide]: the IC50 is less than 1 µM.
The value for `C#Cc1ccc2cnc(NC(=O)[C@H]3CCN(C#N)C3)cc2c1` [Example 263, (S)-1-cyano-N-(6-ethynylisoquinolin-3-yl)pyrrolidine-3-carboxamide] was 1 to 10 µM; that for `N#CN1CCC(C(=O)Nc2ncc(CN3CCOCC3)s2)C1` (stereo not drawn) [Example 140, 1-cyano-N-(5-(morpholinomethyl)thiazol-2-yl)pyrrolidine-3-carboxamide] was less than 1 µM.
For `Cc1cccc(-c2cc(NC(=O)[C@H]3CCN(C#N)C3)nn2C)c1` [Example 271, (S)-1-cyano-N-(1-methyl-5-(m-tolyl)-1H-pyrazol-3-yl)pyrrolidine-3-carboxamide], the concentration for half-maximal inhibition (IC50) was less than 1 µM.
The figure for `CC(C)S(=O)(=O)N1CCc2nc(NC(=O)[C@H]3CCN(C#N)C3)sc2C1` [Example 203, (S)-1-cyano-N-(5-(isopropylsulfonyl)-4,5,6,7-tetrahydrothiazolo[5,4-c]pyridin-2-yl)pyrrolidine-3-carboxamide] is less than 1 µM; for `Cn1cc(-c2ccc3nc(NC(=O)[C@H]4CCN(C#N)C4)sc3c2)cn1` [Example 124, (S)-1-cyano-N-(6-(1-methyl-1H-pyrazol-4-yl)benzo[d]thiazol-2-yl)pyrrolidine-3-carboxamide] it is less than 1 µM; for `COc1ccc(-c2cc(NC(=O)C3CCN(C#N)C3)on2)cc1` (stereo not drawn) [Example 14, 1-cyano-N-(3-(4-methoxyphenyl)isoxazol-5-yl)pyrrolidine-3-carboxamide] it is 1 to 10 µM.
With `N#CN1CC[C@H](C(=O)Nc2ccc(-c3ccccc3)cn2)C1` [Example 54, (S)-1-cyano-N-(5-phenylpyridin-2-yl)pyrrolidine-3-carboxamide], the IC50 lay within 1 to 10 µM.
The figure for `N#CN1CC[C@H](C(=O)Nc2ncc(-c3cccc(C(N)=O)c3)s2)C1` [Example 232, (S)-N-(5-(3-carbamoylphenyl)thiazol-2-yl)-1-cyanopyrrolidine-3-carboxamide] is less than 1 µM; for `C[C@@H]1CN(C#N)C[C@H]1C(=O)Nc1cn(-c2ccccc2)cn1` [Example 85, (f)-1-cyano-4-methyl-N-(1-phenyl-1H-imidazol-4-yl)pyrrolidine-3-carboxamide] it is 1 to 10 µM; for `CC(C)S(=O)(=O)N1CCc2nc(NC(=O)[C@H]3CCN(C#N)C3)sc2CC1` [Example 277, (S)-1-cyano-N-(6-(isopropylsulfonyl)-5,6,7,8-tetrahydro-4H-thiazolo[4,5-d]azepin-2-yl)pyrrolidine-3-carboxamide] it is less than 1 µM.
The figure for `N#CN1CC[C@H](C(=O)Nc2ncc(-c3ccc(S(N)(=O)=O)cc3)s2)C1` [Example 221, (S)-1-cyano-N-(5-(4-sulfamoylphenyl)thiazol-2-yl)pyrrolidine-3-carboxamide] is less than 1 µM.
Turning to `N#CN1CC[C@H](C(=O)Nc2ncc(-c3ccc4cn[nH]c4c3)s2)C1` [Example 222, (S)-N-(5-(1H-indazol-6-yl)-2-yl)-1-cyanopyrrolidine-3-carboxamide], the IC50 is less than 1 µM.
With `COCCNC(=O)c1ccc(-n2cnc(NC(=O)[C@H]3CCN(C#N)C3)c2)cc1` [Example 158, (S)-1-cyano-N-(1-(4-((2-methoxyethyl)carbamoyl)phenyl)-1H-imidazol-4-yl)pyrrolidine-3-carboxamide], the IC50 is less than 1 µM.
As for `CC[C@@H]1CN(C#N)C[C@H]1C(=O)Nc1ncc(-c2ccccc2)s1` (racemic) [Example 86, (±)-1-cyano-4-ethyl-N-(5-phenylthiazol-2-yl)pyrrolidine-3-carboxamide], the IC50 was less than 1 µM.
In the case of `CN1CCC(n2cnc(NC(=O)[C@H]3CCN(C#N)C3)c2)C1` (stereo partly drawn) [Example 188, (3S)-1-cyano-N-(1-(1-methylpyrrolidin-3-yl)-1H-imidazol-4-yl)pyrrolidine-3-carboxamide], the IC50 lay in the range of 1 to 10 µM.
The figure for `CN1CCc2nc(NC(=O)[C@H]3CCN(C#N)C3)sc2C1` [Example 200, (S)-1-cyano-N-(5-methyl-4,5,6,7-tetrahydrothiazolo[5,4-c]pyridin-2-yl)pyrrolidine-3-carboxamide] is 1 to 10 µM; for `N#CN1CCC(C(=O)Nc2nnc(-c3ccccc3)s2)C1` (stereo not drawn) [Example 11, 1-cyano-N-(5-phenyl-1,3,4-thiadiazol-2-yl)pyrrolidine-3-carboxamide] it is 1 to 10 µM.
Turning to `N#CN1CC[C@H](C(=O)Nc2cn3cc(C4CC4)ccc3n2)C1` [Example 129, (S)-1-cyano-N-(6-cyclopropylimidazo[1,2-a]pyridin-2-yl)pyrrolidine-3-carboxamide], the IC50 is less than 1 µM.
The figure for `N#CN1CCC(C(=O)Nc2ccc(N3CCOCC3)cn2)C1` (stereo not drawn) [Example 28, 1-cyano-N-(5-morpholino-pyridin-2-yl)pyrrolidine-3-carboxamide] is 1 to 10 µM; for `N#CN1CCC(C(=O)Nc2ccc(-c3ccccc3)nc2)C1` (stereo not drawn) [Example 35, 1-cyano-N-(6-phenylpyridin-3-yl)pyrrolidine-3-carboxamide] it is 1 to 10 µM.
For `CC(C)(C)c1cc(NC(=O)C2CCN(C#N)C2)no1` (stereo not drawn) [Example 16, N-(5-(tert-butyl)isoxazol-1-3-yl)-1-cyano-pyrrolidine-3-carboxamide], the IC50 fell in the range of 10 to 30 µM.
Consider `N#Cc1cccc(-n2cnc(NC(=O)[C@H]3CCN(C#N)C3)c2)c1` [Example 180, (S)-1-cyano-N-(1-(3-cyanophenyl)-1H-imidazol-4-yl)pyrrolidine-3-carboxamide], for which the IC50 is less than 1 µM.
The value for `Cc1cc(-n2cnc(NC(=O)[C@H]3CCN(C#N)C3)c2)ccc1C#N` [Example 308, (S)-1-cyano-N--(1-(4-cyano-3-methylphenyl)-1H-imidazol-4-yl)pyrrolidine-3-carboxamide] was less than 1 µM; that for `N#CN1CC[C@H](C(=O)Nc2ncc(-c3ccc(Cl)c(C(N)=O)c3)s2)C1` [Example 237, (S)-N-(5-(3-carbamoyl-4-chlorophenyl)thiazol-2-yl)-1-cyanopyrrolidine-3-carboxamide] was less than 1 µM.
In the case of `N#CN1CC[C@H](C(=O)Nc2cn(C3CCCCC3)cn2)C1` [Example 162, (S)-1-cyano-N-(1-cyclohexyl-1H-imidazol-4-yl)pyrrolidine-3-carboxamide], the IC50 was less than 1 µM.
As to `N#CN1CCC(C(=O)Nc2ncc(-c3cccc(F)c3)s2)C1` (stereo not drawn) [Example 2, 1-cyano-N-(5-(3-fluorophenyl)thiazol-2-yl)pyrrolidine-3-carboxamide], the IC50 was less than 1 µM.
For `CC(NS(=O)(=O)c1ccc(NC(=O)[C@H]2CCN(C#N)C2)nc1)c1ccccc1` (stereo partly drawn) [Example 207, (3S)-1-cyano-N-(5-(N-(1-phenylethyl)sulfamoyl)pyridin-2-yl)pyrrolidine-3-carboxamide], the half-inhibitory concentration (IC50) fell in the range of 1 to 10 µM.
Consider `N#CN1CC[C@H](C(=O)Nc2cc3n(n2)CCN(c2ccccc2)C3)C1` [Example 241, (S)-1-cyano-N-(5-phenyl-4,5,6,7-tetrahydropyrazolo[1,5-a]pyrazin-2-yl)pyrrolidine-3-carboxamide], for which the 50% inhibitory concentration (IC50) is less than 1 µM.
In the case of `Cc1nc(-c2ccc3nc(NC(=O)[C@H]4CCN(C#N)C4)cn3c2)no1` [Example 209, (S)-1-cyano-N-(6-(5-methyl-1,2,4-oxadiazol-3-yl)imidazo[1,2-a]pyridin-2-yl)pyrrolidine-3-carboxamide], the IC50 was less than 1 µM.
The figure for `COc1cc(-c2cnc(NC(=O)[C@H]3CCN(C#N)C3)s2)ccc1C#N` [Example 220, (S)-1-cyano-N-(5-(4-cyano-3-methoxyphenyl)thiazol-2-yl)pyrrolidine-3-carboxamide] is less than 1 µM.
The figure for `N#CN1CC[C@H](C(=O)Nc2cn(-c3ccnc4ccccc34)cn2)C1` [Example 305, (S)-1-cyano-N-(1-(quinolin-4-yl)-1H-imidazol-4-yl)pyrrolidine-3-carboxamide] is less than 1 µM.

Usually IC50 stands for the concentration that gives 50% inhibition.
